Laboratory results as given in the NIST ThermoML archive (doi:10.1021/je800026p).

Experiment: xn = mol fraction of the nth substance listed
Conditions: 101 kPa, Liquid; for speed of sound: Sing-around technique in a fixed-path interferometer; for mass density: Vibrating tube method

CCCCCCOCCOCCO [2-(2-hexyloxyethoxy)ethanol] + CCCCNCCCC
Conditions	mass density, 288.15 K [kg/m3]	mass density, 293.15 K [kg/m3]	mass density, 298.15 K [kg/m3]	mass density, 303.15 K [kg/m3]	mass density, 308.15 K [kg/m3]	speed of sound, 288.15 K [m/s]	speed of sound, 293.15 K [m/s]	speed of sound, 298.15 K [m/s]	speed of sound, 303.15 K [m/s]	speed of sound, 308.15 K [m/s]
x1 = 0.0974	787.886	783.751	779.614	775.187	771.079	1301.4	1282.3	1262.9	1243.7	1225.3
x1 = 0.1441	798.114	793.988	789.859	785.667	781.545	1308.1	1289.2	1270.5	1251	1232.2
x1 = 0.1908	808.103	804	799.885	795.785	791.662	1314.8	1296	1277.8	1258.2	1239.2
x1 = 0.253	820.984	816.934	812.825	808.731	804.6	1323.5	1304.8	1287	1267.7	1248.7
x1 = 0.2986	830.092	826.059	821.948	817.838	813.671	1329.8	1311.2	1293.6	1274.5	1255.5
x1 = 0.3606	842	837.97	833.834	829.692	825.52	1338	1319.7	1302.1	1283.4	1264.8
x1 = 0.4018	849.578	845.585	841.423	837.274	833.078	1343.4	1325.2	1307.6	1289.3	1270.9
x1 = 0.4584	859.635	855.602	851.46	847.291	843.095	1350.4	1332.6	1315	1297	1279.1
x1 = 0.5091	868.247	864.218	860.074	855.914	851.724	1356.7	1339	1321.3	1303.8	1286.2
x1 = 0.5435	873.936	869.891	865.751	861.602	857.401	1360.8	1343.2	1325.7	1308.2	1290.8
x1 = 0.587	880.891	876.847	872.72	868.58	864.406	1365.8	1348.4	1330.9	1313.6	1296.5
x1 = 0.6097	884.459	880.409	876.278	872.165	867.972	1368.4	1351	1333.6	1316.4	1299.4
x1 = 0.6572	891.716	887.648	883.547	879.461	875.302	1373.6	1356.4	1339	1322	1305
x1 = 0.7023	898.412	894.343	890.259	886.201	882.052	1378.3	1361.3	1344.1	1327	1310.1
x1 = 0.7451	904.586	900.53	896.459	892.397	888.281	1382.7	1365.7	1348.6	1331.6	1314.5
x1 = 0.8144	914.195	910.151	906.103	902.062	897.98	1389.4	1372.4	1355.5	1338.5	1320.9
x1 = 0.8675	921.188	917.168	913.137	909.095	905.045	1394.2	1377.2	1360.3	1343.3	1325
x1 = 0.9083	926.329	922.317	918.3	914.27	910.231	1397.7	1380.6	1363.7	1346.8	1327.7
x1 = 0.9414	930.322	926.329	922.323	918.281	914.269	1400.4	1383.2	1366.2	1349.3	1329.5
